Reference: patent US11931365B2, “Use of PPAR-delta agonists in the treatment of disease” (Reneo Pharmaceuticals, Inc., priority 2022, dated 2024)
Where two headings read alike, the source gives them in different places.

What was measured:
[1] = test system: VLCAD deficient cell line FB833; conditions: FB833 cells; WO18093839; cited from earlier work
[2] = XRPD re-analysis after GVS isotherm; type: physicochemical; conditions: after isotherm at 90% RH and 25° C.
Procedure: The samples were recovered after completion of the isotherm experiment at 90% RH and 25° C. and re-analyzed by XRPD.

[3] = Gravimetric Vapor Sorption (GVS); type: physicochemical; conditions: 25° C., w/w
Procedure: Sorption isotherms were obtained using a SMS DVS Intrinsic moisture sorption analyzer, controlled by DVS Intrinsic Control software. The sample temperature was maintained at 25° C. by the instrument controls. The humidity was controlled by mixing streams of dry and wet nitrogen, with a total flow rate of 200 ml/min. The relative humidity was measured by a calibrated Rotronic probe (dynamic range of 1.0-100% RH), located near the sample. The weight change, (mass relaxation) of the sample as a function of % RH was constantly monitored by a microbalance (accuracy ±0.005 mg).
Typically, 5-30 mg of sample was placed in a tared mesh stainless steel basket under ambient conditions. The sample was loaded and unloaded at 40% RH and 25° C. (typical room conditions). A moisture sorption isotherm was performed as outlined below (2 scans per complete cycle). The standard isotherm was performed at 25° C. at 10% RH intervals over a 0-90% RH range. Typically, a double cycle (4 scans) was carried out. Data analysis was carried out within Microsoft Excel using the DVS Analysis Suite.

[4] = Stability of solid state forms (storage, drying), XRPD; type: physicochemical; conditions: for XRPD after static storage: 40° C./75% RH for 10 days; for XRPD after ambient storage: 24 hours, 48 hours, 7 days, or 10 days
Procedure: Samples were assessed for stability under ambient or static storage conditions of 25° C./[…] and 40° C./75% RH for 7 or 10 days. The samples were then re-analyzed by XRPD. Subsequent XRPD analysis results for the crystalline forms are described below: […]

mice = conditions: cited from earlier work; for oxidative muscle fibers (and mitochondrial biogenesis) / physical performance / running endurance: combined with exercise
[5] = test system: healthy male volunteers, leg immobilization; assay: Phase 1 placebo-controlled study in healthy volunteers with single limb immobilization; type: in vivo, human; set-up: Change from baseline in muscle strength, mean: unit not given beside the values
Procedure: In a prior clinical trial in healthy volunteers, Compound I was administered at dose of 100 mg twice daily for 28 days in healthy volunteers during and after a single limb immobilization (see NCT01524406). The study was conducted to evaluate the impact of Compound I on the recovery of muscle atrophy from leg immobilization, and improvements in cross section area (CSA) and muscle strength parameters expected in patients treated with study drug compared to those given placebo.
This phase 1, randomized, parallel group, placebo-controlled study was conducted at 2 centers in the United States. Fifty participants were planned for enrollment, 25 per group; participants could be replaced upon sponsor approval.
Screening was conducted 28 days before study start; eligibility was reviewed again at prespecified times during the study. Ambulatory, non-smoking, healthy male volunteers 30 to 55 years of age with a Body Mass Index (BMI) from 18 to 30 kg/m2 were recruited for the study. Key exclusion criteria included abnormal laboratory values at screening, a recent history of body weight fluctuations, positive urine drug screens, drug dependency or illicit drug use, professional sport participation within 30 days of screening, donation of whole blood within 90 days of dosing, and donation of plasma within 30 days of dosing. Concomitant medications within 14 days of dosing were not allowed unless approved by the sponsor. Those who had enrolled in another clinical trial within 90 days or had previously received Compound II were not allowed to participate.
Participants were randomly assigned 1:1 to receive either Compound II (100 mg BID) or matching placebo for 28 days using a computer generated randomization schedule provided by the sponsor. The principal investigator, study center staff, and participants were blinded to treatment; the protocol was amended so that sponsor personnel were not blinded. This change was made to allow investigation of observations concerning adherence to the protocol, discussed further in the pharmacodynamic results. Compound II and placebo were provided as capsules identical in appearance, taken orally with 240 ml of water prior to meals. Study drug was administered at the study site on Days 1 (PM dose), 6 (AM dose), 13 (PM dose), and 14, 15, 16, 29 (AM doses). At all other times study drug was self-administered just before breakfast and dinner. Dates and times were recorded in a diary, with compliance determined from the diaries and capsule counts. Study drug supplies were packaged according to the randomization codes by a contract research organization. Each dispensed bottle was labeled with the randomization number. Individual capsules were re-dispensed from these bottles by the study site staff, maintaining the blind. The total study duration for each subject was 42 days. Participants stayed overnight from Day 1 and Days 13 to 16.
Standardized meals, beverages and snacks were provided during the domicile periods. On Day 1, participants were leg-immobilized using a knee brace with […] on the left leg to allow driving. Walking crutches were provided to prevent weight bearing on the immobilized leg. An accelerometer was issued at screening and was used to count the number of steps per day. Participants were to walk 4000 to 6000 steps each day for the duration of the leg immobilization period, and recorded accelerometer readings each evening before bedtime. The brace was removed on Day 14, and participants resumed normal physical activity gradually from Days 16 to 29. After stopping study drug on Day 29, participants were to resume regular daily activity gradually for another 2 weeks. Consumption of prescribed medications or over the counter products was prohibited from 14 days prior to dosing and throughout the study, with the exception of the treatment of an adverse event. Participants were not to consume alcohol or caffeine containing food and beverages 3 days before each study visit and domicile periods. […]

CPT2-deficient myoblasts = conditions: Djouadi 2005; cited from earlier work
[6] = listed as crystalline Form 2 of Compound II
[7] = listed as crystalline Form 3 of Compound II
[8] = listed as crystalline Pattern 9 of Compound II
[9] = listed as amorphous Compound II

CCCc1c(OCCCOc2ccc(OCC(=O)O)cc2)ccc(C(C)=O)c1O [L-165,0411, [4-[3-(4-Acetyl-3-hydroxy-2-propylphenoxy)propoxy]phenoxy]acetic acid]
VLCAD enzyme activity [1]: increase

Cc1cc(OC/C=C(/c2ccc(F)cc2)c2ccc(C#CCN3CCOCC3)cc2)ccc1OCC(=O)[O-].[Na+] [Form 2, sodium (E)-2-(4-((3-(4-fluorophenyl)-3-(4-(3-morpholinoprop-1-yn-1-yl)phenyl)allyl)oxy)-2-methylphenoxy)acetate]
Solid State Form After GVS (XRPD) [2]: Unchanged (Form 2) | Solid State Form After GVS (XRPD) [2, 6]: unchanged | Reversible Water Uptake between 0-90% RH [3]: ~25% | Reversible Water Uptake between 0-90% RH [3, 6]: ~25% | XRPD form after storage ([4]; 25° C./97% RH/7 days): Unchanged (Form 2) | XRPD form after storage ([4]; 25° C./97% RH/7 days, listed as crystalline Form 2 of Compound II): unchanged | XRPD form after storage ([4]; 40° C./75% RH/7 days): Unchanged (Form 2) | XRPD form after storage ([4]; 40° C./75% RH/7 days, listed as crystalline Form 2 of Compound II): unchanged

Cc1cc(OC/C=C(/c2ccc(F)cc2)c2ccc(C#CCN3CCOCC3)cc2)ccc1OCC(=O)[O-].[Na+] [Pattern 5, sodium (E)-2-(4-((3-(4-fluorophenyl)-3-(4-(3-morpholinoprop-1-yn-1-yl)phenyl)allyl)oxy)-2-methylphenoxy)acetate]
stability of the solid form [4]: unstable

Cc1cc(OC/C=C(/c2ccc(F)cc2)c2ccc(C#CCN3CCOCC3)cc2)ccc1OCC(=O)[O-].[Na+] [Form 5, sodium (E)-2-(4-((3-(4-fluorophenyl)-3-(4-(3-morpholinoprop-1-yn-1-yl)phenyl)allyl)oxy)-2-methylphenoxy)acetate]
Solid State Form After GVS (XRPD) [2]: Form 1 | Solid State Form After GVS (XRPD) ([2]; listed as crystalline Form 5 of Compound II): converts to Form 1 | Reversible Water Uptake between 0-90% RH [3]: ~11% | form change on drying [4]: converts to Form 1

Cc1cc(SCc2sc(-c3ccc(C(F)(F)F)cc3)nc2C)ccc1OCC(=O)O [GW501516, 2-[2-Methyl-4-[[[4-methyl-2-[4-(trifluoromethyl)phenyl]-5-thiazolyl]methyl]thio]phenoxy]acetic acid]
energy substrate usage (mice; 8 weeks): clear shift in energy substrate usage from glucose to fatty acid oxidation | oxidative muscle fibers (and mitochondrial biogenesis) (mice; listed as GW1516): synergistically induced | physical performance / running endurance (mice; listed as GW1516): enhanced | oxidative muscle fibers (and mitochondrial biogenesis) (mice): increase | physical performance / running endurance (mice): enhance | VLCAD enzyme activity [1]: increase

Cc1cc(SCc2sc(-c3ccc(C(F)(F)F)c(F)c3)nc2C)ccc1OCC(=O)O [GW0742, [4-[[[2-[3-Fluoro-4-(trifluoromethyl)phenyl]-4-methyl-5-thiazolyl]methyl]thio]-2-methylphenoxy]acetic acid]
VLCAD enzyme activity [1]: increase

Cc1cc(OC/C=C(/c2ccc(F)cc2)c2ccc(C#CCN3CCOCC3)cc2)ccc1OCC(=O)[O-].[Na+] [Form 3, sodium (E)-2-(4-((3-(4-fluorophenyl)-3-(4-(3-morpholinoprop-1-yn-1-yl)phenyl)allyl)oxy)-2-methylphenoxy)acetate]
Solid State Form After GVS (XRPD) [2]: Form 1 | Solid State Form After GVS (XRPD) [2, 7]: converts to Form 1 | Reversible Water Uptake between 0-90% RH [3]: ~9.0% | Reversible Water Uptake between 0-90% RH [3, 7]: ~9.0% | XRPD form after storage ([4]; 40° C./75% RH/7 days): Form 1 | XRPD form after storage ([4]; 40° C./75% RH/7 days, listed as crystalline Form 3 of Compound II): converts to Form 1 | form change on drying [4]: converts to Form 1 | form change on standing ([4]; standing in ambient conditions): converts to Form 1

Cc1cc(OC/C=C(/c2ccc(F)cc2)c2ccc(C#CCN3CCOCC3)cc2)ccc1OCC(=O)[O-].[Na+] [Compound II, sodium (E)-2-(4-((3-(4-fluorophenyl)-3-(4-(3-morpholinoprop-1-yn-1-yl)phenyl)allyl)oxy)-2-methylphenoxy)acetate]
participants discontinued due to an adverse event of elevated CK ([5]; 100 mg BID): 8.3% | Change from baseline in muscle strength, mean ([5]; Day 14, 100 mg BID): −5.86 | Change from baseline in muscle strength, mean ([5]; Day 21, 100 mg BID): 32.82 | Change from baseline in muscle strength, mean ([5]; Day 29, 100 mg BID): 25.58 | Change from baseline in muscle strength, mean ([5]; Day 42, 100 mg BID): 37.96 | increase from baseline in PDK4, ANGPTL4 and SLC25A34 expression ([5]; muscle biopsies, from Day 14): up to 3.5 fold

Cc1cc(OC/C=C(/c2ccc(F)cc2)c2ccc(C#CCN3CCOCC3)cc2)ccc1OCC(=O)[O-].[Na+] [Pattern 9, sodium (E)-2-(4-((3-(4-fluorophenyl)-3-(4-(3-morpholinoprop-1-yn-1-yl)phenyl)allyl)oxy)-2-methylphenoxy)acetate]
Solid State Form After GVS (XRPD) [2]: Unchanged (Pattern 9) | Solid State Form After GVS (XRPD) [2, 8]: unchanged | Reversible Water Uptake between 0-90% RH [3]: ~27% | Reversible Water Uptake between 0-90% RH [3, 8]: ~27%

CC(C)(Sc1ccc(CCN(CCCCC2CCCCC2)C(=O)NC2CCCCC2)cc1)C(=O)O [GW 7647]
FAO (CPT2-deficient myoblasts): had no effect

Cc1cc(OC/C=C(/c2ccc(F)cc2)c2ccc(C#CCN3CCOCC3)cc2)ccc1OCC(=O)[O-].[Na+] [amorphous, sodium (E)-2-(4-((3-(4-fluorophenyl)-3-(4-(3-morpholinoprop-1-yn-1-yl)phenyl)allyl)oxy)-2-methylphenoxy)acetate]
XRPD after static storage [4, 9]: unchanged | XRPD after static storage ([4]; listed as amorphous solid form): no change | XRPD after ambient storage [4, 9]: unchanged | XRPD after ambient storage ([4]; listed as amorphous solid form): no change

Cc1cc(OC/C=C(/c2ccc(F)cc2)c2ccc(C#CCN3CCOCC3)cc2)ccc1OCC(=O)[O-].[Na+] [Pattern 8, sodium (E)-2-(4-((3-(4-fluorophenyl)-3-(4-(3-morpholinoprop-1-yn-1-yl)phenyl)allyl)oxy)-2-methylphenoxy)acetate]
form change on drying [4]: converts to Form 1
